Laboratory results from patent US8192962B2, “Processes for detecting toxic substances” (Daikin Industries, Ltd., priority 2001, dated 2012).

System: Unknown protein yeast genes
Assay: DNA chip mRNA expression in yeast, unknown protein yeast genes (Table 1)
Format: cell-based, Saccharomyces cerevisiae S288C
Method in brief: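 Untreated cultures served as reference for log-phase S288C yeast given a growth-inhibiting, non-lethal toxicant dose for 2 h at 25° C. in YPD. Gene expression was measured on a whole-genome DNA chip from Cy3/Cy5-labeled cDNA.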

Q: What does the source list for `[Cl][Cd][Cl]` [(2), CdCl2]?
A: The level of expressed mRNA in the presence of chemical substance/The level of expressed mRNA in the absence of chemical substance (yeast gene YKL195W, incubated two hours with chemical substance): 0.5; The level of expressed mRNA in the presence of chemical substance/The level of expressed mRNA in the absence of chemical substance (yeast gene YKR091W, incubated two hours with chemical substance): 2.3; The level of expressed mRNA in the presence of chemical substance/The level of expressed mRNA in the absence of chemical substance (yeast gene YLR054C, incubated two hours with chemical substance): 1.5; The level of expressed mRNA in the presence of chemical substance/The level of expressed mRNA in the absence of chemical substance (yeast gene YLR149C, incubated two hours with chemical substance): 1.9; The level of expressed mRNA in the presence of chemical substance/The level of expressed mRNA in the absence of chemical substance (yeast gene YLR152C, incubated two hours with chemical substance): 1.3; The level of expressed mRNA in the presence of chemical substance/The level of expressed mRNA in the absence of chemical substance (yeast gene YLR194C, incubated two hours with chemical substance): 2.2; The level of expressed mRNA in the presence of chemical substance/The level of expressed mRNA in the absence of chemical substance (yeast gene YLR324W, incubated two hours with chemical substance): 1.2; The level of expressed mRNA in the presence of chemical substance/The level of expressed mRNA in the absence of chemical substance (yeast gene YLR350W, incubated two hours with chemical substance): 1.9; The level of expressed mRNA in the presence of chemical substance/The level of expressed mRNA in the absence of chemical substance (yeast gene YLR387C, incubated two hours with chemical substance): 1.6; The level of expressed mRNA in the presence of chemical substance/The level of expressed mRNA in the absence of chemical substance (yeast gene YLR460C): 2.1; The level of expressed mRNA in the presence of chemical substance/The level of expressed mRNA in the absence of chemical substance (yeast gene YML117W, incubated two hours with chemical substance): 2.2; The level of expressed mRNA in the presence of chemical substance/The level of expressed mRNA in the absence of chemical substance (yeast gene YMR009W, incubated two hours with chemical substance): 1.9; The level of expressed mRNA in the presence of chemical substance/The level of expressed mRNA in the absence of chemical substance (yeast gene YMR067C, incubated two hours with chemical substance): 0.9; The level of expressed mRNA in the presence of chemical substance/The level of expressed mRNA in the absence of chemical substance (yeast gene YMR090W): 9.5; The level of expressed mRNA in the presence of chemical substance/The level of expressed mRNA in the absence of chemical substance (yeast gene YMR095C, incubated two hours with chemical substance): 2.0; The level of expressed mRNA in the presence of chemical substance/The level of expressed mRNA in the absence of chemical substance (yeast gene YMR097C, incubated two hours with chemical substance): 1.0; The level of expressed mRNA in the presence of chemical substance/The level of expressed mRNA in the absence of chemical substance (yeast gene YMR102C, incubated two hours with chemical substance): 2.9; The level of expressed mRNA in the presence of chemical substance/The level of expressed mRNA in the absence of chemical substance (yeast gene YMR107W, incubated two hours with chemical substance): 3.9; The level of expressed mRNA in the presence of chemical substance/The level of expressed mRNA in the absence of chemical substance (yeast gene YMR180C, incubated two hours with chemical substance): 0.9; The level of expressed mRNA in the presence of chemical substance/The level of expressed mRNA in the absence of chemical substance (yeast gene YMR184W, incubated two hours with chemical substance): 5.4; The level of expressed mRNA in the presence of chemical substance/The level of expressed mRNA in the absence of chemical substance (yeast gene YMR191W, incubated two hours with chemical substance): 2.4; The level of expressed mRNA in the presence of chemical substance/The level of expressed mRNA in the absence of chemical substance (yeast gene YMR295C, incubated two hours with chemical substance): 1.0; The level of expressed mRNA in the presence of chemical substance/The level of expressed mRNA in the absence of chemical substance (yeast gene YMR316W, incubated two hours with chemical substance): 2.9; The level of expressed mRNA in the presence of chemical substance/The level of expressed mRNA in the absence of chemical substance (yeast gene YNL044W, incubated two hours with chemical substance): 0.9; The level of expressed mRNA in the presence of chemical substance/The level of expressed mRNA in the absence of chemical substance (yeast gene YNL074C, incubated two hours with chemical substance): 1.3; The level of expressed mRNA in the presence of chemical substance/The level of expressed mRNA in the absence of chemical substance (yeast gene YNL092W, incubated two hours with chemical substance): 1.4; The level of expressed mRNA in the presence of chemical substance/The level of expressed mRNA in the absence of chemical substance (yeast gene YNL115C, incubated two hours with chemical substance): 1.8; The level of expressed mRNA in the presence of chemical substance/The level of expressed mRNA in the absence of chemical substance (yeast gene YNL156C, incubated two hours with chemical substance): 1.2; The level of expressed mRNA in the presence of chemical substance/The level of expressed mRNA in the absence of chemical substance (yeast gene YNL234W, incubated two hours with chemical substance): 1.1; The level of expressed mRNA in the presence of chemical substance/The level of expressed mRNA in the absence of chemical substance (yeast gene YNL281W, incubated two hours with chemical substance): 1.3; The level of expressed mRNA in the presence of chemical substance/The level of expressed mRNA in the absence of chemical substance (yeast gene YNL305C, incubated two hours with chemical substance): 2.2; The level of expressed mRNA in the presence of chemical substance/The level of expressed mRNA in the absence of chemical substance (yeast gene YNR068C, incubated two hours with chemical substance): 1.5; The level of expressed mRNA in the presence of chemical substance/The level of expressed mRNA in the absence of chemical substance (yeast gene YOL032W, incubated two hours with chemical substance): 0.8; The level of expressed mRNA in the presence of chemical substance/The level of expressed mRNA in the absence of chemical substance (yeast gene YOL036W, incubated two hours with chemical substance): 0.9; The level of expressed mRNA in the presence of chemical substance/The level of expressed mRNA in the absence of chemical substance (yeast gene YOL047C, incubated two hours with chemical substance): 1.1; The level of expressed mRNA in the presence of chemical substance/The level of expressed mRNA in the absence of chemical substance (yeast gene YOL071W, incubated two hours with chemical substance): 2.0; The level of expressed mRNA in the presence of chemical substance/The level of expressed mRNA in the absence of chemical substance (yeast gene YOL082W, incubated two hours with chemical substance): 1.6; The level of expressed mRNA in the presence of chemical substance/The level of expressed mRNA in the absence of chemical substance (yeast gene YOL083W, incubated two hours with chemical substance): 2.3; The level of expressed mRNA in the presence of chemical substance/The level of expressed mRNA in the absence of chemical substance (yeast gene YOL117W, incubated two hours with chemical substance): 1.1; The level of expressed mRNA in the presence of chemical substance/The level of expressed mRNA in the absence of chemical substance (yeast gene YOL131W, incubated two hours with chemical substance): 1.5; The level of expressed mRNA in the presence of chemical substance/The level of expressed mRNA in the absence of chemical substance (yeast gene YOL150C): 3.7; The level of expressed mRNA in the presence of chemical substance/The level of expressed mRNA in the absence of chemical substance (yeast gene YOL162W, incubated two hours with chemical substance): 6.9; The level of expressed mRNA in the presence of chemical substance/The level of expressed mRNA in the absence of chemical substance (yeast gene YOR019W, incubated two hours with chemical substance): 1.2; The level of expressed mRNA in the presence of chemical substance/The level of expressed mRNA in the absence of chemical substance (yeast gene YOR197W, incubated two hours with chemical substance): 1.0; The level of expressed mRNA in the presence of chemical substance/The level of expressed mRNA in the absence of chemical substance (yeast gene YPL087W, incubated two hours with chemical substance): 5.1; The level of expressed mRNA in the presence of chemical substance/The level of expressed mRNA in the absence of chemical substance (yeast gene YPL196W, incubated two hours with chemical substance): 1.6; The level of expressed mRNA in the presence of chemical substance/The level of expressed mRNA in the absence of chemical substance (yeast gene YPL206C, incubated two hours with chemical substance): 2.9; The level of expressed mRNA in the presence of chemical substance/The level of expressed mRNA in the absence of chemical substance (yeast gene YPL222W, incubated two hours with chemical substance): 3.5; The level of expressed mRNA in the presence of chemical substance/The level of expressed mRNA in the absence of chemical substance (yeast gene YPR023C, incubated two hours with chemical substance): 1.4; The level of expressed mRNA in the presence of chemical substance/The level of expressed mRNA in the absence of chemical substance (yeast gene YPR151C, incubated two hours with chemical substance): 2.0
